The record followed here is paper PMC7915588, “Polyphyllin D Shows Anticancer Effect through a Selective Inhibition of Src Homology Region 2-Containing Protein Tyrosine Phosphatase-2 (SHP2)” (Molecules, 2021).

What is called inhibition is how much of the control response was suppressed.

Assay in all cases: biochemical
Holding throughout (parameters): Fluorogenic phosphatase assay, DiFMUP hydrolysis by recombinant PTPs, initial velocity, Ex/Em 355/460 nm
Settings in all cases: read-out: Inhibition by 20 µM polyphyllin D (%)

One experiment addresses T1, PTPN18 (PTP-HSCF) (Homo sapiens, UniProt Q99952).
T1 construct: 1-300
T1 sequence (Q99952 1-460): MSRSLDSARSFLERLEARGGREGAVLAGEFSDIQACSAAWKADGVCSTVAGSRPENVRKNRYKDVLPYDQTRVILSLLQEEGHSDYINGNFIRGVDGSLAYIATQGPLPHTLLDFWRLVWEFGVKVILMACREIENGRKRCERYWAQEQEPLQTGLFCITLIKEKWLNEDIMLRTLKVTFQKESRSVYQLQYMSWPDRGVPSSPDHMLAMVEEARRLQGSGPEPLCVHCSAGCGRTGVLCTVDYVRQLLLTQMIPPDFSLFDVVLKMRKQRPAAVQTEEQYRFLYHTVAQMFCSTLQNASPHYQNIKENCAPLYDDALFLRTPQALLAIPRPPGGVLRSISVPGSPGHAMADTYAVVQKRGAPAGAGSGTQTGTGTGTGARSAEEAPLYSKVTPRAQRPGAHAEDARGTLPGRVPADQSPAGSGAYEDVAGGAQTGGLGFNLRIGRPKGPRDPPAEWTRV
The procedure:
(§1) Enzymatic reactions were initiated by the addition of SHP2 (final concentration of 10 nM) to a solution of each of the 658 phytochemical compounds (final concentration of 20 µM) in reaction buffer (20 mM bis-tris pH 6.0, 150 mM NaCl, 2.5 mM dithiothreitol, and 0.01% Triton X-100) containing DiFMUP (final concentration of 140 µM). Changes in the fluorescence intensities were measured continuously for 10 min at Ex/Em = 355/460 nm on a VictorTM X4 multilabel plate reader. Enzyme inhibition was estimated by comparing the reaction velocity in the presence of each compound with that in the absence of any compound. Inhibition of the other PTPs was measured in the same way. Next, we established a screening strategy using a DiFMUP substrate to identify a natural product that inhibits SHP2 activity. Initially, we screened 658 compounds at 20 µM using a 96-well plate system (Figure 2A). […] The selected compounds were tested at 20 µM for SHP2 inhibition, and 14 additional non-receptor-type PTPs (PTP1B, TCPTP, PTPH1, STEP, SHP1, HePTP, PTP-MEG2, PTP-PEST, PTP-BAS, PTP36, PTP-HSCF, PTPD1, LYP, and HD-PTP) were used to investigate the inhibition selectivity. The results were visualized using a heat map analysis by GraphPad Prism (Figure 2B and Table S2 in Supplementary Materials). To identify new SHP2 anticancer natural products, we first performed cloning to express SHP2 protein and then purified it. PTPN11 (Gene ID: 5781) encoding human SHP2 (amino acids sequences 1 to 526) with several extra amino acids were cloned into the MBP-pET 28a (+) vector, which was successfully used to overexpress PTPs with enhanced solubility in an Escherichia coli expression system. Information on amino acids for 15 non-receptor-type PTPs including SHP2 is summarized in Table S3 in the Supplementary Materials. SHP2 was overexpressed in RosettaTM (DE3) and purified using a metal affinity resin (Figure S1 in Supplementary Materials). […] The kcat, KM, and kcat/KM values were determined to be 270 min^−1, 70 μM, and 3.9 μM^−1min^−1, respectively, using the Lineweaver–Burk plot analysis (Table S1 in Supplementary Materials).

The target of another experiment is T2, PTPN5 (STEP) (Homo sapiens, UniProt P54829).
T2 construct: 313-565
T2 sequence (P54829 1-565): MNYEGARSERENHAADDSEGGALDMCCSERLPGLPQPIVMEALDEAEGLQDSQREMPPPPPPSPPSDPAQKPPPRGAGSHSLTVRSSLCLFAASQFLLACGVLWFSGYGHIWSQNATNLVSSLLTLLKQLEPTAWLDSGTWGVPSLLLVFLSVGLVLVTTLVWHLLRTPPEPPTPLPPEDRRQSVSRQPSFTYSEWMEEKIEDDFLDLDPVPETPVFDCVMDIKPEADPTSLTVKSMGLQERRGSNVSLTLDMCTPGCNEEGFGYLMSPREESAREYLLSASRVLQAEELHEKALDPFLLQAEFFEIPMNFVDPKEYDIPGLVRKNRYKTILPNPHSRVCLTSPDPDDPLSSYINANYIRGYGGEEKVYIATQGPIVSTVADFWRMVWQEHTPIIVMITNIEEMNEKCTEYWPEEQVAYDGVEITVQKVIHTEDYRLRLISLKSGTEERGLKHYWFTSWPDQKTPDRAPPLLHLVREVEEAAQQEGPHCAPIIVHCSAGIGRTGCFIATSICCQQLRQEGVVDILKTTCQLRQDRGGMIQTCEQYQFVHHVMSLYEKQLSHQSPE
The procedure:
as §1

For another experiment, the target named is T3, SHP2 (Homo sapiens, UniProt Q06124).
T3 construct: gene PTPN11
T3 sequence (Q06124 1-526): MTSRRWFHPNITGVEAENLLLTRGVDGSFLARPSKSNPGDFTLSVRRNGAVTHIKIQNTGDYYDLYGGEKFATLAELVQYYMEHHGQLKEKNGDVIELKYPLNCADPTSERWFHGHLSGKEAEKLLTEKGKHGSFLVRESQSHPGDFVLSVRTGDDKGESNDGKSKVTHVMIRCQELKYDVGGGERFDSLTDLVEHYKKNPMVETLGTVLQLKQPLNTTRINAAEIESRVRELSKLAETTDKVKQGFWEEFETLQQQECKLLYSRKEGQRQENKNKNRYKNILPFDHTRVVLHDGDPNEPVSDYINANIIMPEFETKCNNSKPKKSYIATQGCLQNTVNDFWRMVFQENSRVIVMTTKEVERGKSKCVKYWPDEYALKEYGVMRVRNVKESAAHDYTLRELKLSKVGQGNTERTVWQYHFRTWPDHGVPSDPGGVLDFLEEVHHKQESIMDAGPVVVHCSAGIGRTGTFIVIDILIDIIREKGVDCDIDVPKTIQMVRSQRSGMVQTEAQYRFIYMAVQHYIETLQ
The procedure:
as §1

For the compound `C[C@@H]1CC[C@@]2(OC1)O[C@H]1C[C@H]3[C@@H]4CC=C5C[C@@H](O[C@@H]6O[C@H](CO)[C@@H](O[C@@H]7O[C@@H](CO)[C@H](O)[C@H]7O)[C@H](O)[C@H]6O[C@@H]6O[C@@H](C)[C@H](O)[C@@H](O)[C@H]6O)CC[C@]5(C)[C@H]4CC[C@]3(C)[C@H]1[C@@H]2C` [polyphyllin D], the inhibition at 20 µM at PTPN18 (PTP-HSCF) came to 14.2%; on PTPN5 (STEP) it was 0%; at SHP2, 85.6%.
